Measurements reported in US6451576B1, “Sesquiterpene synthases from grand fir (Abies grandis), and methods of use” (Washington State University Research Foundation, priority 1998, dated 2002).

Legend:
[1] = biological target: T1, γ-Humulene Synthase (ag5) (SEQ ID No: 24) (Abies grandis, UniProt O64405); assay: Product profile of recombinant γ-humulene synthase in vitro (preparative assay, GLC-MS); format: biochemical; details: from [1-3H]farnesyl diphosphate; total ion current chromatogram
T1 construct: For further subcloning of the amplified, full-length cDNA into the pSBETa vector for high-level expression, the pGAG5 insert was amplified; made in house; host or cells: E. coli XL1-Blue/pGAG5 or E. coli BL21(DE3)/pSBAG5
T1 sequence (O64405 1-593): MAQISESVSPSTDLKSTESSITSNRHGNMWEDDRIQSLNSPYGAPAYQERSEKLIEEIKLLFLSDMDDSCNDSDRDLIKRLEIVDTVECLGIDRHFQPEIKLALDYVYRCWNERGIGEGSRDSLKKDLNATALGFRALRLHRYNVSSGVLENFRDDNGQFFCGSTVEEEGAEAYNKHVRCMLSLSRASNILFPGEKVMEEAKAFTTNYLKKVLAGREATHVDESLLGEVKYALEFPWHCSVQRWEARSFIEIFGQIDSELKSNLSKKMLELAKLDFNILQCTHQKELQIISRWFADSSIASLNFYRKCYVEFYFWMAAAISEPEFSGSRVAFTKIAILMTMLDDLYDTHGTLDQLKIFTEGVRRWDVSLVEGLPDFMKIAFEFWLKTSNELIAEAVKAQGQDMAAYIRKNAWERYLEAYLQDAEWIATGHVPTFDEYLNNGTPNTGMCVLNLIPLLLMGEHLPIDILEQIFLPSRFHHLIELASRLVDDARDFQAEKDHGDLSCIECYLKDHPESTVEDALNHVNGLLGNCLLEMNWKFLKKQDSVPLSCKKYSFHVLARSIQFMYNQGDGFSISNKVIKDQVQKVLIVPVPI
Method: (§1) For preparative incubations, the assay was scaled to 5 ml containing the total protein extracted from 100 ml of bacterial culture and 30 μM [1-^3H]farnesyl diphosphate, and the incubation time was extended to 8 h. Aliquots of the olefin fraction and the fraction containing oxygenated metabolites (diethyl ether eluate) were evaluated by liquid scintillation counting, and were analyzed by radio-GLC (Croteau, R. & Cane. D. E. (1985) Methods Enzymol. 110, 383-405; Satterwhite, D. M. & Croteau, R. (1988) J. Chromatogr. 452, 61-73) using a Gow-Mac 550P chromatograph that was equipped with a 3.18 mm×3.66 m stainless steel column packed with 5% OV17 (50% phenyl:50% methylsiloxane) on 100/120 mesh Gas Chrom Q (Alltech) and programmed from 150° C. to 220° C. at 2° C./min with He as carrier. The elution of co-injected standards was monitored with the Gow-Mac thermal conductivity detector (250° C. and 150 mA) and the radioactivity signal was continuously monitored with a Nuclear Chicago Model 8731 gas proportional counter; output data were processed using Perkin-Elmer Turbochrom Software.
(§2) Expression of Sesquiterpene Synthase cDNAs AG4 (SEQ ID No:19) and AG5. (SEQ ID No:23) in E. coli. Both putative sesquiterpene cyclase cDNAs (SEQ ID Nos:19 and 23) were expressed in bacterial strains E. coli XL1-Blue/pGAG4, E. coli XL1-Blue/pGAG5, E. coli BL21(DE3)/pSBAG4, and E. coli BL21(DE3)/pSBAG5 as set forth in EXAMPLE 7. Bacteria were grown to A600=0.5 at 37° C. in 5 ml or 100 ml of LB medium supplemented with 100 μg ampicillin/ml or 30 μg kanamycin/ml as determined by the vector. Cultures were then induced by addition of 1 mM isopropyl-1-thio-β-D-galactopyranoside and grown for another 12 h at 20° C. Cells were harvested by centrifugation (2000×g, 10 min) and resuspended in either 1 ml or 5 ml sesquiterpene synthase assay buffer (EXAMPLE 2). Cells were disrupted by sonication (Braun-Sonic 2000 with microprobe at maximum power for 15 seconds at 0-4° C.) and the homogenates were cleared by centrifugation (18,000×g, 10 min). Preparative assays were employed to generate product for GLC-MS analysis, as set forth in EXAMPLE 2, with quantification of composition via the total ion current chromatogram.
Product Profile of Recombinant γ-Humulene Synthase (SEQ ID No:24) In Vitro.

[2] = biological target: T2, δ-Selinene Synthase (ag4) (SEQ ID No. 20) (Abies grandis, UniProt O64404); assay: Product profile of recombinant δ-selinene synthase in vitro (preparative assay, GLC-MS); format: biochemical; details: from [1-3H]farnesyl diphosphate; total ion current chromatogram
T2 construct: made in house; host or cells: E. coli XL1-Blue/pGAG4 or E. coli BL21(DE3)/pSBAG4
T2 sequence (O64404 1-581): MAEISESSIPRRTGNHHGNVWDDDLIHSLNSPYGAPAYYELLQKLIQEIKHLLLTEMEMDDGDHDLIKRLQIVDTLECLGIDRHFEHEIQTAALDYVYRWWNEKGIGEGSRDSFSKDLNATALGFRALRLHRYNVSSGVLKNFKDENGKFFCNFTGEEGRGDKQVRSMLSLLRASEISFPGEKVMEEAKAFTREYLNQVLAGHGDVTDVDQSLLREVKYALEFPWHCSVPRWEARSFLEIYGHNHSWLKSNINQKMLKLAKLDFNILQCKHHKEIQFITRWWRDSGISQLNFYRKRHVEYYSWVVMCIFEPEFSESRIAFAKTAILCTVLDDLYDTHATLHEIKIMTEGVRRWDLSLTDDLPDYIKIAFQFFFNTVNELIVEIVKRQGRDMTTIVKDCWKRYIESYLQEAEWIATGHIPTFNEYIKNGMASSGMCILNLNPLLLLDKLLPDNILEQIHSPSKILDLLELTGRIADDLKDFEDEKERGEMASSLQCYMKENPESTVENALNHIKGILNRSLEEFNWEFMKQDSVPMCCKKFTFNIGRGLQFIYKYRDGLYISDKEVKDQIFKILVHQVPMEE
Method: as §1, §2
Product Profile of Recombinant δ-Selinene Synthase (SEQ ID No:20) In Vitro.

Row | Structure (SMILES) | sesquiterpene products of γ-humulene synthase, % [1] | sesquiterpene products of δ-selinene synthase, % [2]
1 | C=C1CCC2C3C(C(C)C)CCC2(C)C13 (stereo not drawn) [β-Ylangene] | 0.3% | 
2 | CC1=C[C@H]2C(=C(C)CCCC2(C)C)CC1 [β-Himachalene] | 7.2% | 
3 | C=C(C)[C@@H]1CC[C@H](C)C2=C(C1)[C@@H](C)CC2 [α-Guiaene] |  | 0.2%
4 | C=C1/C=C/[C@H](C(C)C)CC/C(C)=C/CC1 [Germacrene D] |  | 0.8%
5 | CC(C)=CC/C=C(/C)C1CC=C(C)CC1 (stereo not drawn) [E-α-Bisabolene] | 0.9% | 
6 | C=C(C)[C@@H]1CC[C@@]2(C)CCC=C(C)[C@@H]2C1 [α-Selinene] |  | 1.7%
7 | C=C1C=CC(C)(C)CCCC(C)=CCC1 [γ-Humulene] | 28.6% | 
8 | CC1=C[C@@H]2C(=C(C)CC[C@H]2C(C)C)CC1 [δ-Cadinene] |  | 1.4%
9 | CC1=CC[C@@]23[C@@H]([C@@H]12)[C@H](C(C)C)CC[C@H]3C [α-Cubebene] | 0.1% | 
10 | CC(C)=C1C/C=C(\C)CC/C=C(\C)CC1 [E,E-Germacrene B] |  | 17.4%
11 | C=C1CC[C@@]23[C@@H]([C@@H]12)[C@H](C(C)C)CC[C@H]3C [β-Cubebene] | 0.1% | 
12 | C/C1=C\CC/C(C)=C/CC(C)(C)/C=C/C1 [α-Humulene] |  | 0.7%
13 | C=C1CCCC(C)(C)[C@H]2C=C(C)CC[C@@H]12 [α-Himachalene] | 4.8% | 
14 | C/C1=C\C=C(\C(C)C)CC/C(C)=C/CC1 [Germacrene C] |  | 3.4%
15 | CC1=CCCC(C)=CCCC(C)=CCC1 [1,5,9-trimethylcyclododeca-1,5,9-triene (tent. 2 isomers), 1,5,9-trimethylcyclododeca-1,5,9-triene] | 0.2% | 
16 | C=CC(=C)CC/C=C(\C)CCC=C(C)C [E-β-Farnesene] | 1.3% | 
17 | CC(C)C1CCC2(C)C3CC4C(C13)C42C (centres unmarked) [Cyclosativene] | <0.1% | 
18 | CC1(C)CCC[C@@]2(C)[C@@H]3CC4C([C@@H]31)C42C [Longicyclene] | 0.2% | 
19 | C=C1[C@@H]2CC[C@H]3[C@@H]2[C@@H](C(C)C)CC[C@@]13C [Sativene] | 3.1% | 
20 | C=C1CC/C=C(\C)CC[C@@H]2[C@@H]1CC2(C)C [β-Caryophyllene] |  | 1.5%
21 | CC1=C2C=C(C(C)C)CCC2(C)CCC1 (centres unmarked) [δ-Selinene] |  | 25.3%
22 | CC(C)=CCC/C(C)=C1/CC=C(C)CC1 [γ-Bisabolene] | 1.9% | 
23 | CC1=CCCC2(C)CCC(=C(C)C)CC12 (centres unmarked) [Seli-3,7(11)-diene] |  | 1.2%
24 | C=C1[C@H]2CC[C@@H]3[C@H]2C(C)(C)CCC[C@]13C [Longifolene] | 11.8% | 
25 | C=C1CCC2C3C1C2(C)CCCC3(C)C (stereo not drawn) [β-Longipinene] | 1.5% | 
26 | CC1=CCC(C(C)C)=C[C@@H]2[C@H](C)CC[C@H]12 [Guaia-6,9-diene] |  | 9.7%
27 | CC1=C[C@H]2[C@@H](CC1)C(C)=CCCC2(C)C [γ-Himachalene] | 5.8% | 
28 | CC1=CC[C@@H]2[C@@H]3[C@H]1[C@@]2(C)CCCC3(C)C [α-Longipinene] | 3.4% | 
29 | CC1CCC=C2CCC3C(C3(C)C)C21C (stereo not drawn) [β-Gurjunene] | 2.0% | 
